In patent publication US12594317B2 (priority 2020, dated 2026):

System: HEK293 cell line stably expressing ACE2 receptor infected by COVID-19 pseudovirus
Format: cell-based, human
Settings: positive control group, 10 μL of 100 μM solution per well, 48 h

For `CCN(CC)CCCC(C)Nc1ccnc2cc(Cl)ccc12` (stereo not shown) [chloroquine phosphate], the “RLU/RLUc value (ratio of fluorescence value of test group to average fluorescence intensity of negative control group)” value was 0.05±0.01.
